Experimental findings from patent US9844550B2, “Phtalazinone derivatives and manufacturing process thereof” (ILDONG PHARM CO., LTD., priority 2013, dated 2017) are described below.

pIC50: −log10 of the molar value. Some results are limits rather than exact numbers.

In general, pIC50 refers to the negative decadic logarithm of the IC50, by convention in mol/L. What is called AUC is the area under the concentration-time curve, a measure of exposure.

The target of series [1] is T1, Tankyrase-1 (Homo sapiens, UniProt O95271).
T1 sequence (O95271 1-1327): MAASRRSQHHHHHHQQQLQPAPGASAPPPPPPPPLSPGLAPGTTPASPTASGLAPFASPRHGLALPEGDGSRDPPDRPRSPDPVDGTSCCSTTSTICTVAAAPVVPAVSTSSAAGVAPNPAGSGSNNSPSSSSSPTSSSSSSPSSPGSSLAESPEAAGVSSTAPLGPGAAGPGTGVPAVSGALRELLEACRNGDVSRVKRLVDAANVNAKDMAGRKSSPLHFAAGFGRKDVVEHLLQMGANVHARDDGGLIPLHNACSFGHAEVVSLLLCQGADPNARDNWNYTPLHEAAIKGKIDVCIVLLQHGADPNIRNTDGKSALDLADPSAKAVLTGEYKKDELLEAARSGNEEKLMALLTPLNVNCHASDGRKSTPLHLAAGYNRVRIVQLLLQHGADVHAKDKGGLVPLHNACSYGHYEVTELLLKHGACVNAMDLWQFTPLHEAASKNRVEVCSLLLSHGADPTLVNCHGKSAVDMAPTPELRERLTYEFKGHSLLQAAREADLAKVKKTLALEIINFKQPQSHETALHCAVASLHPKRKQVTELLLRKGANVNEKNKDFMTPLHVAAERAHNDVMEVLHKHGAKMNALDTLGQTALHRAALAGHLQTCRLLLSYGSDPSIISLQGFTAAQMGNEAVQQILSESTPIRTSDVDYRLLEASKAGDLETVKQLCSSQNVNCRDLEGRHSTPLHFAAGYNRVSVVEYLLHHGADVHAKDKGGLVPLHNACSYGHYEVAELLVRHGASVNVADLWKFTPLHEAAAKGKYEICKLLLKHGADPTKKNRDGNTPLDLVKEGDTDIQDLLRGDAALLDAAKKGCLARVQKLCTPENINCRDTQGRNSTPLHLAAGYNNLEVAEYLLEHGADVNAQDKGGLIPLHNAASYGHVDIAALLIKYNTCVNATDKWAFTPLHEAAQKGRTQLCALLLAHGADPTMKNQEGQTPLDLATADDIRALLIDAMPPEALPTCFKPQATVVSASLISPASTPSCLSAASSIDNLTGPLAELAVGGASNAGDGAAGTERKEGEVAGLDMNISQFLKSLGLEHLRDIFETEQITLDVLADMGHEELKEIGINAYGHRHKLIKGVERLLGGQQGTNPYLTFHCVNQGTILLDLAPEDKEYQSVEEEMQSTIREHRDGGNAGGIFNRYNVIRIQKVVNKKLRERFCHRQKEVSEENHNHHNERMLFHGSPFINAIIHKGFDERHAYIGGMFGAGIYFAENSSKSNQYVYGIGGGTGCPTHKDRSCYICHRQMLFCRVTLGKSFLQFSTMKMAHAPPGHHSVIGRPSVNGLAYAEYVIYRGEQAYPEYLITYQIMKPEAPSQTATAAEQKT
The experiment in a line: Tankyrase-1 enzyme assay. Type of series: biochemical. The conditions noted are these: 1 hr at room temperature, chemiluminescent readout. The method, then:
5. Tankyrase-1 Enzyme Assay
Tankyrase-1 enzyme assay was performed to determine Tankyrase-1 inhibitory activity of compounds in the present invention. The enzymatic reaction was conducted by coating the plate with substrates of tankyrase-1, and then the plate was washed. Compounds in the present invention serially diluted in DMSO were added to the reaction buffer activating tankyrase-1, and incubated for 1 hr at room temperature. After stopping the reaction, the plate was washed, and streptavidin-HRP was added to each well. IC50 was calculated by adding chemiluminescent substrate and immediately reading the sample in a microplate reader (Biotek).

Series [2] has as its system MDA-MB-436 breast cancer cell line. The experiment in a line: Cell viability assay (MDA-MB-436). Type of series: cell-based. The following applies: Homo sapiens, 144 h; MDA-MB-436 cells, treated 6 days. The essentials: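 MDA-MB-436 breast cancer cells in DMEM/F12 with 10% FBS, treated 24 h after seeding with graded compound concentrations for 6 days at 37 °C, 5% CO2, medium changed every 3 days. Viability read with a fluorescence reagent; IC50 derived.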

The subject of series [3] is Capan-1 pancreatic cancer cell line. The experiment in a line: Cell viability assay (Capan-1). The conditions noted are these: Homo sapiens, 240 h; Capan-1 cells, treated 10 days. Type of series: cell-based. The procedure: 3. Cell Viability Assay (Capan-1)
Cell viability assay was performed by using Capan-1 cell line to measure cytotoxicity of compounds in the present invention. Capan-1 pancreatic cancer cell line was seeded into 96-well plates at 37° C. under 5% CO2 atmosphere using IMDM (Sigma) containing 10% FBS (Hyclone). After 24 hr incubation, cells were treated with the invented compounds at various concentrations for 10 days. After 7-day incubation, the medium was changed. 10 days later, A fluorescence reagent was used to determine the IC50 values.

The subject of series [4] is LNCaP prostate cancer cell line. The experiment in a line: Cell viability assay (LNCaP). Type of series: cell-based. The conditions noted are these: Homo sapiens, 264 h; LNCaP cells, treated 11 days. The procedure: 4. Cell Viability Assay (LNCaP)
Cell viability assay was performed by using LNCaP cell line to measure cytotoxicity of compounds in the present invention. LNCaP prostate cancer cell line was seeded into 96-well plates at 37° C. under 5% CO2 atmosphere using RPMI-1640 (Hyclone) containing 10% FBS (Hyclone). After 24 hr incubation, cells were treated with the invented compounds at various concentrations for 11 days. The medium was changed every 3 to 4 day. 11 days later, A fluorescence reagent was used to determine the IC50 values.

A short description of series [5]: Mouse pharmacokinetics. Further details: concentration or dose not given beside the values. Type of series: in vivo. The following applies: Balb/c male mice, blood samples 15 to 1140 min, LC-MS/MS. The procedure: To evaluate the pharmacokinetics test, the invented compounds (from I-25 to I-1171) were determined as follows. Blood samples are collected at 15, 30, 60, 120, 240, 480, 1140 min. Quantification is by using a LC-MS/MS method specific to the selected compound. Pharmacokinetics parameters are calculated using WinNonLinnon compartmental analysis software.

Series [6] has as its system Capan-1 Human pancreatic cancer cells. The experiment in a line: In vivo antitumoral efficacy, Capan-1 subcutaneous xenograft. The conditions noted are these: Capan-1 xenograft in Balb/c nude mice. The procedure: To evaluate the in vivo antitumoral efficacy, the invented compounds (I-80˜171) was determined as a result to follows.
Capan-1 Human pancreatic cancer cells were established as subcutaneous xenografts by injection of 8×10^6 cells into the flanks of adult female Balb/c nude mice. Mice with established tumors (160-250 mm^3) were selected for study (n=6/treatment group). The test compounds were formulated in DW and administered orally (po) at a dose of 30˜200 mg/kg. The vehicle alone was administered to control groups. Animals were dosed 5 days per week (Monday through Friday) for 3 consecutive weeks.
Animals were weighed and tumor size was determined twice weekly by caliper measurements, and tumor volumes were calculated (volume=[…] (mm^3), where l and w refer to the larger and smaller dimensions collected at each measurement). The mean tumor volumes of each group were calculated. The change in mean treated tumor volume was divided by the change in mean control tumor volume, multiplied by 100 and subtracted from 100% to give the tumor growth inhibition for each group.

Series [7] is described as follows: Solubility test in water. Type of series: physicochemical. The following applies: 25° C., atmospheric pressure. The procedure:
To evaluate the solubility, the invented compounds (I-159, I-161 and I-171) was determined as follows. The compounds was dissolve in water (1 mL, 10 mL and 100 mL) at 25° C. under an atmospheric pressure.

For `O=C(c1cc(Cc2n[nH]c(=O)c3ccccc23)ccc1F)N1CC(NC2CCCC2)C1` [Compound I-27, 4-(3-(3-(cyclopentylamino)azetidine-1-carbonyl)-4-fluorobenzyl)phthalazin-1(2H)-one], the pIC50 in series [1] was less than 6.00; in series [2], no less than 8.30; in series [3], 6.52 to 7.30; in series [4], 6.52 to 7.30. Also, in series [5], the AUC is 472 ng·h/mL.

Take `CC(C)NC1CN(C(=O)c2cc(Cc3n[nH]c(=O)c4ccccc34)ccc2F)C1` [Compound I-32, 4-(4-fluoro-3-(3-(isopropylamino)azetidine-1-carbonyl)benzyl)phthalazin-1(2H)-one]: the pIC50 was less than 6.00 in series [1], no less than 8.30 in series [2], 6.52 to 7.30 in series [3] and 6.52 to 7.30 in series [4].

Consider `O=C(c1cc(Cc2n[nH]c(=O)c3ccccc23)ccc1F)N1CC(NCC2CC2)C1` [Compound I-33, 4-(3-(3-((cyclopropylmethyl)amino)azetidine-1-carbonyl)-4-fluorobenzyl)phthalazin-1(2H)-one], for which the pIC50 in series [1] is less than 6.00; in series [2] it was no less than 8.30; in series [3] it was 6.00 to 6.52; in series [4], 6.00 to 6.52. For the same molecule, the AUC in series [5] was 1020 ng·h/mL.

Take `N#CC1(NC2CN(C(=O)c3cc(Cc4n[nH]c(=O)c5ccccc45)ccc3F)C2)CCC1` [Compound I-99, 1-((1-(2-fluoro-5-((4-oxo-3,4-dihydrophthalazin-1-yl)methyl)benzoyl)azetidin-3-yl)amino)cyclobutanecarbonitrile]: the pIC50 in series [1] is 6.00 to 6.52; in series [2] it was 7.30 to 8.30; in series [3], 6.00 to 6.52; in series [4] it was 6.00 to 6.52. In addition, the AUC in series [5] is 586 ng·h/mL.

On to `O=C(c1cc(Cc2n[nH]c(=O)c3ccccc23)ccc1F)N1CC(Nc2ccc(Cl)nn2)C1` [Compound I-114, 4-(3-(3-((6-chloropyridazin-3-yl)amino)azetidine-1-carbonyl)-4-fluorobenzyl)phthalazin-1(2H)-one], for which the pIC50 is less than 6.00 in series [1], 6.00 to 6.52 in series [2] and 7.30 to 8.30 in series [4].

Turning to `O=C(c1cc(Cc2n[nH]c(=O)c3ccccc23)ccc1F)N1CC[C@@H](Nc2ncc(Br)cn2)C1` [Compound I-130, (R)-4-(3-(3-((5-bromopyrimidin-2-yl)amino)pyrrolidine-1-carbonyl)-4-fluorobenzyl)phthalazin-1(2H)-one], the pIC50 is 6.52 to 7.30 in series [1] and no less than 8.30 in series [2].

`CC(C)(C)NCC1CN(C(=O)c2cc(Cc3n[nH]c(=O)c4ccccc34)ccc2F)C1` [Compound I-147, 4-(3-(3-((tert-butylamino)methyl)azetidine-1-carbonyl)-4-fluorobenzyl)phthalazin-1(2H)-one]: the pIC50 was less than 6.00 in series [1] and 6.00 to 6.52 in series [2].

Turning to `O=C(c1cc(Cc2n[nH]c(=O)c3ccccc23)ccc1F)N1CC(CNc2ccccc2)C1` [Compound I-150, 4-(4-fluoro-3-(3-((phenylamino)methyl)azetidine-1-carbonyl)benzyl)phthalazin-1(2H)-one], the pIC50 is less than 6.00 in series [1] and 6.52 to 7.30 in series [2].

Take `CC(C)NC1CN(C(=O)c2cc(Cc3n[nH]c(=O)c4ccccc34)ccc2F)C1.Cl` [Compound I-159, 4-(4-fluoro-3-(3-(isopropylamino)azetidine-1-carbonyl)benzyl)phthalazin-1(2H)-one hydrochloride]: the “% TGI” value was found to be 59.4% in series [6] (100 mg/kg po qd x 5, 3 consecutive weeks) and 69.4% in series [6] (200 mg/kg po qd x 5, 3 consecutive weeks). The “Solubility class in words” value in series [7] is “Sparingly soluble”. Also, in series [5], the AUC is 472 ng·h/mL.

Turning to `CC(C)CNC1CN(C(=O)c2cc(Cc3n[nH]c(=O)c4ccccc34)ccc2F)C1.Cl` [Compound I-161, 4-(4-fluoro-3-(3-(isobutylamino)azetidine-1-carbonyl)benzyl)phthalazin-1(2H)-one hydrochloride], the “Solubility class in words” value in series [7] is on record as “Sparingly soluble”. The AUC in series [5] was 1020 ng·h/mL.

With `Cl.O=C(c1cc(Cc2n[nH]c(=O)c3ccccc23)ccc1F)N1CC(CNC2CC2)C1` [Compound I-171, 4-(3-(3-((cyclopropylamino)methyl)azetidine-1-carbonyl)-4-fluorobenzyl)phthalazin-1(2H)-one hydrochloride], the “% TGI” value in series [6] (30 mg/kg po qd x 5, 3 consecutive weeks) is 42.1%; in series [6] (60 mg/kg po qd x 5, 3 consecutive weeks), 69.7%. Besides, in series [7], the “Solubility class in words” value was “Sparingly soluble”. The same molecule showed an AUC in series [5] of 673 ng·h/mL.
